According to ChEMBL document CHEMBL1130820, “Search for alpha 1-adrenoceptor subtypes selective antagonists: design, synthesis and biological activity of cystazosin, an alpha 1D-adrenoceptor antagonist” (Bioorg Med Chem Lett, 1998):

Target: T1, Adrenergic receptor alpha-2 (Rattus norvegicus, UniProt P22086+P19328+P22909)
T1 sequence (P22086 whole entry): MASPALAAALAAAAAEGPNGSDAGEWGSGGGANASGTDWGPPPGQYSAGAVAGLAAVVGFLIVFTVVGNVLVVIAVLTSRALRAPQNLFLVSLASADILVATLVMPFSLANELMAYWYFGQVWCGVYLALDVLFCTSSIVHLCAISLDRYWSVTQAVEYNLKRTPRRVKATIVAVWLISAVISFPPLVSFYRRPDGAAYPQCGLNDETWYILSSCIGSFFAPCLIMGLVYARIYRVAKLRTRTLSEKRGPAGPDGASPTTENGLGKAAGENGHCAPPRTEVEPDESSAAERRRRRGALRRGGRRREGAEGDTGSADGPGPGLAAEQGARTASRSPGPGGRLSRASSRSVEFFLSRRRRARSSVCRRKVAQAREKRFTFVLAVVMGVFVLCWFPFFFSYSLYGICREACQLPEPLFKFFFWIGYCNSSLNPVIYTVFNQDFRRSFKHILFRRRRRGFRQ
T1 sequence (P19328 whole entry): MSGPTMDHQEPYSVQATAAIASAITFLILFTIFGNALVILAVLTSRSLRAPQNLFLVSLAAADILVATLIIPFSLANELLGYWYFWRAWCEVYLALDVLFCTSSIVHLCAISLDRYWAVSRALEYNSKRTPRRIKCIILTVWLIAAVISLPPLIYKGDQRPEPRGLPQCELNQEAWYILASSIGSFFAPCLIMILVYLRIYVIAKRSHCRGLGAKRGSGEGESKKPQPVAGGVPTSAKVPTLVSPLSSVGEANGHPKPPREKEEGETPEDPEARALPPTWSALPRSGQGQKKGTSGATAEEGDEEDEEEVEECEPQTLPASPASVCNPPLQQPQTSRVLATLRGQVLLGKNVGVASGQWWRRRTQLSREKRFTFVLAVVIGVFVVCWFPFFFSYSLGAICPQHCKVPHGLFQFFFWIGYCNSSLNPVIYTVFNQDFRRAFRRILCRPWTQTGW
T1 sequence (P22909 whole entry): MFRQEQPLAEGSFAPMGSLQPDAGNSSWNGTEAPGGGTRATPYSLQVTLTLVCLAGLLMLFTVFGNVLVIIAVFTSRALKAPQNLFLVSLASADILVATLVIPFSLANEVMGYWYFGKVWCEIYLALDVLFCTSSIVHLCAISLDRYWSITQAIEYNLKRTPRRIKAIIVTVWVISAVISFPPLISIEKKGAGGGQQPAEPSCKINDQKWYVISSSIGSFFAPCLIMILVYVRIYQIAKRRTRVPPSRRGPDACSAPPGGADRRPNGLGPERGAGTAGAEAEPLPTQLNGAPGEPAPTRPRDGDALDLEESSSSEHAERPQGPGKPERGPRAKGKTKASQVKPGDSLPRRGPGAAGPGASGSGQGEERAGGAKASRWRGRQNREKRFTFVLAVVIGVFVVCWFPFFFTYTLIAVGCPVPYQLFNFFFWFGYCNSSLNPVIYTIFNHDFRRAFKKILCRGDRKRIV
Assay: Antagonistic affinity against native rat cortex Alpha-2 adrenergic receptor
Assay type: functional, tissue-based
Conditions: not given

With COc1cc2nc(N(C)CCCCCCN(C)C(=O)c3ccco3)nc(N)c2cc1OC as the molecule, how does the “Log Ki” value read?
The value was -7.

COc1cc2nc(N(C)CCSSCCN(C)C(=O)c3ccco3)nc(N)c2cc1OC was tested. Which “Log Ki” value did it give?
The value was -6.23.

Which “Log Ki” value does the source give for COc1ccccc1N1CCN(CCN2C(=O)CC3(CCCC3)CC2=O)CC1.Cl.Cl here?
Its value is -5.98.

How did the “Log Ki” value turn out when COc1cc2nc(N3CCN(C(=O)c4ccco4)[C@H]4CCCC[C@H]43)nc(N)c2cc1OC [CYCLAZOSIN] was run?
Its value is -6.13.

Target: T2, 5-hydroxytryptamine receptor 1A (Homo sapiens, UniProt P08908)
T2 sequence (P08908 whole entry): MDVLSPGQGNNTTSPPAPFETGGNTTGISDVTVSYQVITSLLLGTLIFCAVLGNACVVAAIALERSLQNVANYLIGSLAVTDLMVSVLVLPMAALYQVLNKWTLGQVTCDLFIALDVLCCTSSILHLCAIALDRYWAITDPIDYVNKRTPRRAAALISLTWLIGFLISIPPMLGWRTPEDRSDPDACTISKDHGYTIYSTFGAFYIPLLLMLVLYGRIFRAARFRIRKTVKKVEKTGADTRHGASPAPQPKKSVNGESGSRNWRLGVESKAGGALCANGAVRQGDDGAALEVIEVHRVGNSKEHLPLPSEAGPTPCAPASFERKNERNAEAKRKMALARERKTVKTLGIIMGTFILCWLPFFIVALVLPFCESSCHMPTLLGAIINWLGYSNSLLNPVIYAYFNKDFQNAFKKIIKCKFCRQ
Assay: Antagonistic affinity against cloned human 5-hydroxytryptamine 1A receptor
Assay type: functional
Conditions: not given

With COc1cc2nc(N(C)CCCCCCN(C)C(=O)c3ccco3)nc(N)c2cc1OC as the molecule, how does the Ki read?
The Ki was > 1000 nM.

How did the Ki turn out when COc1cc2nc(N(C)CCSSCCN(C)C(=O)c3ccco3)nc(N)c2cc1OC was run?
The Ki was > 1000 nM.

COc1ccccc1N1CCN(CCN2C(=O)CC3(CCCC3)CC2=O)CC1.Cl.Cl was tested. Which Ki did it give?
The Ki was 1.74 nM.

How did the Ki turn out when COc1cc2nc(N3CCN(C(=O)c4ccco4)[C@H]4CCCC[C@H]43)nc(N)c2cc1OC [CYCLAZOSIN] was run?
The Ki was > 1000 nM.

Target: T3, Alpha-1B adrenergic receptor (Rattus norvegicus, UniProt P15823)
T3 sequence (P15823 whole entry): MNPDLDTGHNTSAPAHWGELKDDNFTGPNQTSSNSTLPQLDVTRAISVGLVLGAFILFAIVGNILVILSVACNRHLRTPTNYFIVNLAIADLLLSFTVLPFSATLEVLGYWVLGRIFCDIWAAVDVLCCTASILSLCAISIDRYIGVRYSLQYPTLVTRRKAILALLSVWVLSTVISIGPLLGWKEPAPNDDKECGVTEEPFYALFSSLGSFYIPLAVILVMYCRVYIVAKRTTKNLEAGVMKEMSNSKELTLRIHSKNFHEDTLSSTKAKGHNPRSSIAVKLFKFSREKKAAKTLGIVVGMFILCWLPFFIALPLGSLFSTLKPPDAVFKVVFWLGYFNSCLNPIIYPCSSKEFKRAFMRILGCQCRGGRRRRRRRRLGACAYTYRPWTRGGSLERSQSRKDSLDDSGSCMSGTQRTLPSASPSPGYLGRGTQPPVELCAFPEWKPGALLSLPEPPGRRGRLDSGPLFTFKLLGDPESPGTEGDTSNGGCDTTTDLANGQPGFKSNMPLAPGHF
Assay: Antagonistic affinity against Alpha-1B adrenergic receptor was determined in isolated spleen tissue from rat
Assay type: functional, tissue-based
Conditions: read-out: pA2 (converted)

Which Kb does the source give for COc1cc2nc(N(C)CCCCCCN(C)C(=O)c3ccco3)nc(N)c2cc1OC here?
Its Kb is 0.145 nM.

For COc1cc2nc(N(C)CCSSCCN(C)C(=O)c3ccco3)nc(N)c2cc1OC, which Kb is on record?
The Kb was 32.4 nM.

COc1cc2nc(NCCSSCCNC(=O)c3ccco3)nc(N)c2cc1OC was tested. Which Kb did it give?
Its Kb is 115 nM.

Which Kb does the source give for COc1ccccc1N1CCN(CCN2C(=O)CC3(CCCC3)CC2=O)CC1.Cl.Cl here?
The Kb was 28.2 nM.

Target: T4, Alpha-1D adrenergic receptor (Rattus norvegicus, UniProt P23944)
T4 sequence (P23944 whole entry): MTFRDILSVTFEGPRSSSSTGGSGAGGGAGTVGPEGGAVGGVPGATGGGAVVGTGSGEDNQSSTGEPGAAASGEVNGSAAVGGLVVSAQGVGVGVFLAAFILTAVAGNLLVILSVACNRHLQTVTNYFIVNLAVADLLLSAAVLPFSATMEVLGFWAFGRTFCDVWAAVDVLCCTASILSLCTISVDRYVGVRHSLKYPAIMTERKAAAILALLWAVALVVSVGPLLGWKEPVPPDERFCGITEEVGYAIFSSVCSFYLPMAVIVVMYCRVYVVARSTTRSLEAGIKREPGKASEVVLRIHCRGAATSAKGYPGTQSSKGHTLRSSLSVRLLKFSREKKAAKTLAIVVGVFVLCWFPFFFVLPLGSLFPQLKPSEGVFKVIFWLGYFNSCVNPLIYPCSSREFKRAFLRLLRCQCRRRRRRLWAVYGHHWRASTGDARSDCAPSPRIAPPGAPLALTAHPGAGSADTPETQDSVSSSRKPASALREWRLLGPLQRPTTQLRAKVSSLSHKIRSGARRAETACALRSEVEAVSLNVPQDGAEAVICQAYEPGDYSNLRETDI
Assay: Antagonistic affinity against Alpha-1D adrenergic receptor was determined in isolated thoracic aorta from rat
Assay type: functional, tissue-based
Conditions: read-out: pA2 (converted)

For COc1cc2nc(N(C)CCCCCCN(C)C(=O)c3ccco3)nc(N)c2cc1OC, which Kb is on record?
Its Kb is 0.646 nM.

COc1cc2nc(N(C)CCSSCCN(C)C(=O)c3ccco3)nc(N)c2cc1OC was tested. Which Kb did it give?
Its Kb is 2.88 nM.

Which Kb does the source give for COc1cc2nc(NCCSSCCNC(=O)c3ccco3)nc(N)c2cc1OC here?
Its Kb is 45.7 nM.

Target: T5, Alpha-1A adrenergic receptor (Rattus norvegicus, UniProt P43140)
T5 sequence (P43140 whole entry): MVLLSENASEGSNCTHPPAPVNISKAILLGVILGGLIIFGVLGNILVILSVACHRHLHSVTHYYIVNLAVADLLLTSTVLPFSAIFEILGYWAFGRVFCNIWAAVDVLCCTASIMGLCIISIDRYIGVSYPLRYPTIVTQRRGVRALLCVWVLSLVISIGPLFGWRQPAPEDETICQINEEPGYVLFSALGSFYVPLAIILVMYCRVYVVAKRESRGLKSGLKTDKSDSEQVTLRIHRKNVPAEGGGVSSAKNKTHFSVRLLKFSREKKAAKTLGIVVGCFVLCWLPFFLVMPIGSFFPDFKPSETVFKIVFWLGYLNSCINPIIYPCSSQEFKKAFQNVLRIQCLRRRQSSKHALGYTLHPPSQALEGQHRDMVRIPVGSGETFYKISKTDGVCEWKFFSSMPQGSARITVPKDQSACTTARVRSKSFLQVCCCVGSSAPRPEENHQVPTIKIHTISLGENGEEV
Assay: Antagonistic affinity against Alpha-1A adrenergic receptor was determined in isolated prostatic vas deferens tissue from rat
Assay type: functional, tissue-based
Conditions: read-out: pA2 (converted)

With COc1cc2nc(N(C)CCCCCCN(C)C(=O)c3ccco3)nc(N)c2cc1OC as the molecule, how does the Kb read?
Its Kb is 0.912 nM.

For COc1cc2nc(N(C)CCSSCCN(C)C(=O)c3ccco3)nc(N)c2cc1OC, which Kb is on record?
Its Kb is 29.5 nM.

Which Kb does the source give for COc1cc2nc(NCCSSCCNC(=O)c3ccco3)nc(N)c2cc1OC here?
Its Kb is 1780 nM.

With COc1cc2nc(N3CCN(C(=O)c4ccco4)[C@H]4CCCC[C@H]43)nc(N)c2cc1OC [CYCLAZOSIN] as the molecule, how does the Kb read?
The Kb was 33.1 nM.

Target: D(2) dopamine receptor (Rattus norvegicus, UniProt P61169)
Sequence (P61169 whole entry): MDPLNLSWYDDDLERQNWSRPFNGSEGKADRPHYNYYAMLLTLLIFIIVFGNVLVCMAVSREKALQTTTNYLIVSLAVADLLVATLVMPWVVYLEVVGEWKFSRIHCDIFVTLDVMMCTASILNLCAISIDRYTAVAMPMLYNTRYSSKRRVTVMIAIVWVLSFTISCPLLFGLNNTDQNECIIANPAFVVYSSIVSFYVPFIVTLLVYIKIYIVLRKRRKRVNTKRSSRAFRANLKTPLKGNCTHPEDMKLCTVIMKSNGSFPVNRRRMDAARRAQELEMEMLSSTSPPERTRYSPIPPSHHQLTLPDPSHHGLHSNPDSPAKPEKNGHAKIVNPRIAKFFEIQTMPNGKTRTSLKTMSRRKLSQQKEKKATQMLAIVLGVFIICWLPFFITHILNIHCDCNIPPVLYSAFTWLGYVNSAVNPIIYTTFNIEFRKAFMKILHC
Assay: Antagonistic affinity against rat striatum Dopamine receptor D2
Assay type: functional, tissue-based
Conditions: not given

COc1cc2nc(N(C)CCCCCCN(C)C(=O)c3ccco3)nc(N)c2cc1OC was tested. Which Ki did it give?
The Ki was 2340 nM.

For COc1ccccc1N1CCN(CCN2C(=O)CC3(CCCC3)CC2=O)CC1.Cl.Cl, which Ki is on record?
The Ki was 47.9 nM.

With COc1cc2nc(N3CCN(C(=O)c4ccco4)[C@H]4CCCC[C@H]43)nc(N)c2cc1OC [CYCLAZOSIN] as the molecule, how does the Ki read?
The Ki was 8320 nM.

Which Ki does the source give for COc1cc2nc(N3CCN(C(=O)c4ccco4)CC3)nc(N)c2cc1OC [PRAZOSIN] here?
The Ki was > 10000 nM.
